This note sets out measurements from patent publication US4824834A, “Pyrazolotriazine compounds” (Otsuka Pharmaceutical Company, Limited, priority 1986, dated 1989).

Each structure is given as a SMILES string. pIC50: −log10 of the molar value.

The test system of experiment [1] is uric acid in serum. As to the kind of experiment: Lowering effect of test compound on the level of uric acid in serum (in vivo, oral administration). On the set-up: species or system mouse (normal male ICR mice). Particulars: Mus musculus, 4 hours after administration, male ICR mice, suspended in 0.5% CMC-Na, read-out: in vivo Lowering rate (%) of uric acid in serum (in 4 hours). As to the method:
Experiment 2 (In Vivo: Oral Administration)
(1) Animals, Method of Administration and Sampling of Serum
Normal male ICR mice (weighting about 30 g), were provided normal diet and tap water ad libitum. A test compound suspended in 0.5% CMC-Na was administered orally to the mice (each group: 6 mice) in a dose of 5 mg/kg.
(2) Measurement of Amount of Uric Acid in Serum
To the serum (200 μl) was added 10% perchloric acid (100 μl), and the mixture was centrifuged. To the supernatant fluid (100 μl) was added 0.2M Na2 HPO4 (200 μl), and the mixture (20 μl) was analyzed by HPLC to measure the amount of uric acid. The HPLC was carried out under the following conditions.
Column: Cosmosil packed column (.phi. 4.6 mm×150 mm, 5C18 -300)
(§1) Eluting solution: 10 mM phosphate buffer (pH 6.0)
(§2) Retention time: 2.4 minutes (uric acid)
(3) Lowering Effect of Test Compound on the Level of Uric Acid in Serum
The lowering rate of uric acid in serum was calculated by the following equation. [formula]

Experiment [2] has as its target T1, Xanthine oxidase (Mus musculus, UniProt Q00519).
T1 construct: The small intestine was homogenized in 4-fold volume of cooled phosphate buffered saline solution (PBS) and then centrifuged; from tissue; host or cells: small intestine of ICR strain mice; dialysed supernatant of a 105,000 g centrifugation
As to the kind of experiment: Xanthine oxidase inhibition (in vitro), mouse small intestine xanthine oxidase solution, HPLC of uric acid. Type of experiment: biochemical, mouse (ICR strain mice. To be noted: xanthine substrate, incubated at 37° C. for 5 minutes; HPLC UV 292 nm. As to the method: (1) Preparation of Xanthine Oxidase Solution
ICR strain mice were decapitated and the small intestine of each mouse was rapidly perfused with cooled physiological saline solution and removed. The small intestine was homogenized in 4-fold volume of cooled phosphate buffered saline solution (PBS) and then centrifuged at 105,000 g for 60 minutes. The supernatant fluid was dialyzed overnight against PBS. The dialyzed solution thus prepared was stored at -20° C. until used.
(2) Preparation of the Solution Containing the Present Compound
The compound of this invention was dissolved in DMSO (200 μl) and 2N NaOH (100 μl), and then PBS was added to prepare a solution (25 ml) containing 10^-3 M of the compound of this invention. This solution was diluted with PBS to prepare solutions containing the compound in the concentration of 10^-4, 10^-5, 10^-6, 10^-7, 10^-8, 10^-9, 10^-10, and 10^-11 M, respectively.
(3) Method for the Measurement
The assay mixture, consisted of the composition mentioned below, was incubated at 37° C. for 5 minutes. The reaction was stopped by heating in boiling water for one minute. Twenty microliters of the supernatant was analyzed by high performance liquid chromatography (HPLC) under the conditions mentioned below.
Xanthine oxidase solution (diluted in 4-folds with PBS): 200 μl
Solution containing the present compound: 200 μl
Column: osmosil packed column (.phi. 4. mm×150 mm, 5C18×300)
as §1, §2
(4) Percent Inhibition of the Compound Against Xanthine Oxidase
The percent inhibition was calculated by the following equation. [formula]
As to each of the solutions containing the present compound as prepared in the above (2), the percent inhibition was calculted, and IC50 values were obtained from a plot of the percent inhibition against the log of the concentration of the compound of this invention.

T1 sequence (Q00519 whole entry): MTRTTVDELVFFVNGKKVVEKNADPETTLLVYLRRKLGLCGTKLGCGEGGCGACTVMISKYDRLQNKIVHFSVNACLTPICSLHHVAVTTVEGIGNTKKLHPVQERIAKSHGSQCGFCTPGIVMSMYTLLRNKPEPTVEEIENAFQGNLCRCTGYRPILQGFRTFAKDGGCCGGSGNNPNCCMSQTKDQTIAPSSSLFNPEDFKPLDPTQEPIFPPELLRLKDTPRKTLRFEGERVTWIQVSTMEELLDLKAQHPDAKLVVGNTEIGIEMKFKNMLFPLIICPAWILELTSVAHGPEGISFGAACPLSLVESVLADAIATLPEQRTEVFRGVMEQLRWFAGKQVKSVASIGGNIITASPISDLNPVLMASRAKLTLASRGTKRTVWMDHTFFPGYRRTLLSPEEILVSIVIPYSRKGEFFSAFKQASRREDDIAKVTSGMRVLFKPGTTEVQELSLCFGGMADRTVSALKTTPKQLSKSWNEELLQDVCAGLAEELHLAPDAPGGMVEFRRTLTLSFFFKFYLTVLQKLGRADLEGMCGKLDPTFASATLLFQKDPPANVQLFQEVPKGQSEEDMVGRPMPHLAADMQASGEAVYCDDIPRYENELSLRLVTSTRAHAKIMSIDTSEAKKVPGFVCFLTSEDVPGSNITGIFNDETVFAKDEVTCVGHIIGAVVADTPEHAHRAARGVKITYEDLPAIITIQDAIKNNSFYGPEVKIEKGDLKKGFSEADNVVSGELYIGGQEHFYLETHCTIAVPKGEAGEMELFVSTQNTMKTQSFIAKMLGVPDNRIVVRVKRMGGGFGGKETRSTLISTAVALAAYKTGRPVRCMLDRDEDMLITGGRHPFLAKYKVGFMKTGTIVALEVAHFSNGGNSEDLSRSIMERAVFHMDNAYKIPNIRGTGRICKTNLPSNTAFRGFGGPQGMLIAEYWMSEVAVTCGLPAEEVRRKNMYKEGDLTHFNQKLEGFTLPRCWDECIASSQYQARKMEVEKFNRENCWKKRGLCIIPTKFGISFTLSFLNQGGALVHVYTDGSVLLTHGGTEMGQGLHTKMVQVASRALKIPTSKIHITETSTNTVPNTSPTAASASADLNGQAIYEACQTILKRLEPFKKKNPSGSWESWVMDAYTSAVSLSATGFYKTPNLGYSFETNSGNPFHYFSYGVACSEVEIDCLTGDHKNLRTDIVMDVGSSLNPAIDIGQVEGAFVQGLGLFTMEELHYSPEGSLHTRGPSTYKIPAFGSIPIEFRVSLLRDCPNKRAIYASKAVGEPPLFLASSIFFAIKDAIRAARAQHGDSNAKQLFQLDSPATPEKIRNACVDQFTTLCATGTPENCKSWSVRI

Consider `Oc1ncnc2[nH]ncc12` [Allopurinol, 4-hydroxypyrazolo[3,4-d]pyrimidine, reference compound], for which the inhibition in vivo at 5 mg/kg in experiment [1] is 34%.

As to `CCSc1ccc(-c2cnn3c(O)ncnc23)cc1` [Example 17, 8-(4-Ethylthiophenyl)-4-hydroxypyrazolo[1,5-a]-1,3,5-triazine], the pIC50 (in general, the negative decadic logarithm of the IC50, by convention in mol/L) in experiment [2] was 7.52.

In experiment [2], `Oc1ncnc2c(-c3ccc(Sc4ccccc4)cc3)cnn12` [Example 19, 4-Hydroxy-8-(4-phenylthiophenyl)pyrazolo[1,5-a]-1,3,5-triazine] had a pIC50 of 6.80.

Molecule `Cc1ccc(Sc2ccc(-c3cnn4c(O)ncnc34)cc2)cc1` [Example 21, 4-Hydroxy-8-[4-(4-methylphenylthio)phenyl]pyrazolo[1,5-a]-1,3,5-triazine] showed a negative logarithm of the IC50 (pIC50) in experiment [2] of 6.51. This pIC50 is 0.29 log units lower than that of the molecule before.

In turn, `CSc1ccc(-c2cnn3c(O)ncnc23)cc1C` [Example 30, 4-Hydroxy-8-(3-methyl-4-methylthiophenyl)pyrazolo[1,5-a]-1,3,5-triazine] gave a negative logarithm of the IC50 (pIC50) in experiment [2] of 7.15. Further, the inhibition in vivo at 5 mg/kg in experiment [1] was 47%.

Consider `CCSc1ccc(-c2cnn3c(O)ncnc23)cc1C` [Example 31, 8-(4-Ethylthio-3-methylphenyl)-4-hydroxypyrazolo[1,5-a]-1,3,5-triazine], for which the pIC50 in experiment [2] is 8.00. The inhibition in vivo at 5 mg/kg in experiment [1] is 63.5%.

`Cc1cc(-c2cnn3c(O)ncnc23)ccc1Sc1ccccc1` [Example 33, 4-Hydroxy-8-(3-methyl-4-phenylthiophenyl)pyrazolo[1,5-a]-1,3,5-triazine] had a pIC50 in experiment [2] of 7.74. The inhibition in vivo at 5 mg/kg in experiment [1] amounted to 62%.

In turn, `CCc1cc(-c2cnn3c(O)ncnc23)ccc1SC` [Example 39, 8-(3-Ethyl-4-methylthiophenyl)-4-hydroxypyrazolo[1,5-a]-1,3,5-triazine] showed a pIC50 in experiment [2] of 7.35.

In turn, `CSc1ccc(-c2cnn3c(O)ncnc23)cc1SC` [Example 41, 8-[(3,4-Bismethylthio)phenyl]-4-hydroxypyrazolo[1,5-a]-1,3,5-triazine] gave a pIC50 in experiment [2] of 7.62. In addition, the inhibition in vivo at 5 mg/kg in experiment [1] was found to be 60.1%.

For the molecule `CSc1ccc(-c2cnn3c(O)ncnc23)cc1Cl` [Example 43, 8-(3-Chloro-4-methylthiophenyl)-4-hydroxypyrazolo[1,5-a]-1,3,5-triazine], the pIC50 in experiment [2] is 8.00. For the same molecule, the inhibition in vivo at 5 mg/kg in experiment [1] was 60.6%.

On to `Oc1ncnc2c(-c3cc(Cl)c(OCc4ccccc4)c(Cl)c3)cnn12` [Example 52, 8-(4-Benzyloxy-3,5-dichlorophenyl)-4-hydroxypyrazolo[1,5-a]-1,3,5-triazine], for which, in experiment [2], the pIC50 was 7.28.

`Oc1ncnc2c(-c3cc(Cl)c(Cl)c(Cl)c3)cnn12` [Example 53, 4-Hydroxy-8-(3,4,5-trichlorophenyl)pyrazolo[1,5-a]-1,3,5-triazine] showed a pIC50 in experiment [2] of 7.82. Against the preceding molecule, the pIC50 is 0.54 log units higher.

Turning to `CSc1cc(F)c(-c2cnn3c(O)ncnc23)cc1C` [Example 54, 8-(2-Fluoro-5-methyl-4-methylthiophenyl)-4hydroxypyrazolo[1,5-a]-1,3,5-triazine], the pIC50 in experiment [2] was 6.26. Moreover, the inhibition in vivo at 5 mg/kg in experiment [1] came to 65.2%.

In experiment [2], `O=C(c1ccccc1)c1ccc(-c2cnn3c(O)ncnc23)cc1` [Example 70, 8-(4-Benzoylphenyl)-4-hydroxypyrazolo[1,5-a]-1,3,5-triazine] had a pIC50 of 8.28.

For `Cc1cc(-c2cnn3c(O)ncnc23)ccc1[N+](=O)[O-]` [Example 73, 4-Hydroxy-8-(3-methyl-4-nitrophenyl)pyrazolo[1,5-a]-1,3,5-triazine], in experiment [2], the pIC50 is 7.40.

The molecule `COc1cc(-c2cnn3c(O)ncnc23)ccc1[N+](=O)[O-]` [Example 74, 4-Hydroxy-8-(3-methoxy-4-nitrophenyl)pyrazolo[1,5-a]-1,3,5-triazine] showed a pIC50 in experiment [2] of 7.30.

Take `Cc1ccc(NS(=O)(=O)c2ccc(-c3cnn4c(O)ncnc34)cc2)cc1` [Example 95, 4-Hydroxy-8-[4-(4-methylphenylaminosulfonyl)phenyl]pyrazolo[1,5-a]-1,3,5-triazine]: the pIC50 in experiment [2] is 8.44.

With `CCc1ccc(NS(=O)(=O)c2ccc(-c3cnn4c(O)ncnc34)cc2)cc1` [Example 96, 8-[4-(4-Ethylphenylaminosulfonyl)phenyl]-4-hydroxypyrazolo[1,5-a]-1,3,5-triazine], the negative-log IC50 (pIC50) in experiment [2] was 10.00.

`CCc1cccc(NS(=O)(=O)c2ccc(-c3cnn4c(O)ncnc34)cc2)c1` [Example 97, 8-[4-(3-Ethylphenylaminosulfonyl)phenyl]-4-hydroxypyrazolo[1,5-a]-1,3,5-triazine]: the negative logarithm of the IC50 (pIC50) in experiment [2] was 9.35.

As to `CC(C)c1ccc(NS(=O)(=O)c2ccc(-c3cnn4c(O)ncnc34)cc2)cc1` [Example 99, 4-Hydroxy-8-[4-(4-isopropylphenylaminosulfonyl)phenyl]pyrazolo[1,5-a]-1,3,5-triazine], in experiment [2], the pIC50 is 9.85.

On to `CC(C)(C)c1ccc(NS(=O)(=O)c2ccc(-c3cnn4c(O)ncnc34)cc2)cc1` [Example 100, 8-[4-(4-t-Butylphenylaminosulfonyl)phenyl]-4hydroxypyrazolo[1,5-a]-1,3,5-triazine], for which the pIC50 in experiment [2] was 9.12.

`CC(O)c1ccc(NS(=O)(=O)c2ccc(-c3cnn4c(O)ncnc34)cc2)cc1` (stereo not drawn) [Example 101, 4-Hydroxy-8-[4-(4-α-hydroxyethylphenylaminosulfonyl)phenyl]pyrazolo[1,5-a]-1,3,5-triazine] had a pIC50 in experiment [2] of 7.27.

With `COC(=O)c1ccc(NS(=O)(=O)c2ccc(-c3cnn4c(O)ncnc34)cc2)cc1` [Example 105, 4-Hydroxy-8-[4-(4-methoxycarbonylphenylaminosulfonyl)phenyl]pyrazolo[1,5-a]-1,3,5-triazine], in experiment [2], the pIC50 is 8.66.

`O=S(=O)(Nc1cccc(O)c1)c1ccc(-c2cnn3c(O)ncnc23)cc1` [Example 107, 4-Hydroxy-8-[4-(3-hydroxyphenylaminosulfonyl)phenyl]pyrazolo[1,5-a]-1,3,5-triazine]: in experiment [2], the negative logarithm of the IC50 (pIC50) is 7.19. This pIC50 is 1.47 log units lower than that of the molecule before.

Consider `O=S(=O)(Nc1ccc(Cl)cc1)c1ccc(-c2cnn3c(O)ncnc23)cc1` [Example 109, 8-[4-(4-Chlorophenylaminosulfonyl)phenyl]-4hydroxypyrazolo[1,5-a]-1,3,5-triazine], for which the pIC50 in experiment [2] is 8.44. This pIC50 is 1.25 log units higher than that of the molecule before.

In turn, `COC(=O)c1ccc(NS(=O)(=O)c2ccc(-c3cnn4c(O)ncnc34)cc2)cc1O` [Example 112] had a pIC50 in experiment [2] of 8.19.

Consider `COC(=O)c1ccc(NS(=O)(=O)c2ccc(-c3cnn4c(O)ncnc34)cc2)cc1OC` [Example 113, 4-Hydroxy-8-[4-(3-methoxy-4-methoxycarbonylphenylaminosulfonyl)phenyl]pyrazolo[1,5-a]-1,3,5-triazine], for which, in experiment [2], the pIC50 is 7.47.

In turn, `O=S(=O)(NCc1cccs1)c1ccc(-c2cnn3c(O)ncnc23)cc1` [Example 134, 4-Hydroxy-8-[4-(2-thienylmethylaminosulfonyl)phenyl]pyrazolo[1,5-a]-1,3,5-triazine] showed a negative logarithm of the IC50 (pIC50) in experiment [2] of 7.12.

On to `CN(C)S(=O)(=O)c1ccc(-c2cnn3c(O)ncnc23)cc1Cl` [Example 136, 8-(3-Chloro-4-dimethylaminosulfonylphenyl)-4-hydroxypyrazolo[1,5-a]-1,3,5-triazine], for which, in experiment [2], the pIC50 was 7.49.

In experiment [2], `Cc1cc(-c2cnn3c(O)ncnc23)ccc1S(=O)(=O)N(C)C` [Example 138, 8-(4-Dimethylaminosulfonyl-3-methylphenyl)-4hydroxypyrazolo[1,5-a]-1,3,5-triazine] had a pIC50 of 7.41.

Turning to `Cc1cc(-c2cnn3c(O)ncnc23)ccc1Br` [Example 142, 8-(4-Bromo-3-methylphenyl)-4-hydroxypyrazolo[1,5-a]-1,3,5-triazine], in experiment [2], the negative-log IC50 (pIC50) is 7.28.

In experiment [2], `Oc1ncnc2c(-c3ccc(Br)c(Cl)c3)cnn12` [Example 143, 8-(4-Bromo-3-chlorophenyl)-4-hydroxypyrazolo[1,5-a]-1,3,5-triazine] gave a pIC50 of 7.44.

`Oc1ncnc2c(-c3ccc(Sc4ccccc4)c(Cl)c3)cnn12` [Example 167, 8-(3-Chloro-4-phenylthiophenyl)-4-hydroxypyrazolo[1,5-a]-1,3,5-triazine] showed a negative-log IC50 (pIC50) in experiment [2] of 8.30.
